Measurements taken from US4159373A, “7-Acyl-3-(sulfonic acid and sulfamoyl substituted tetrazolyl thiomethyl) cephalosporins” (SmithKline Corporation, priority 1978, dated 1979).
In brackets after ≈: the same amount, converted by molar mass. Like-named read-outs stand apart in the source and are kept apart here.

Columns and labels:
E. coli 12140 = assay: In vivo mouse protection, E. coli 12140; details: Table 2, E. coli 12140, read-out: ED50 in vivo
Kleb. pneumo. 4200 = assay: In vivo mouse protection, Kleb. pneumo. 4200; details: read-out: ED50 in vivo
Serra. marc ATCC 13880 = assay: MIC in vitro; type: cell-based, Serratia marcescens; details: for MIC: Serratia marcescens; for MIC in vitro: Table 1
Method: (§1) The compounds of Formula I have exceptional antibacterial activity against both Gram-positive and Gram-negative organisms. Minimum inhibitory concentrations (MIC's) ranged from 0.2 to <200 μg./ml. in in vitro testing.

Kleb. pneumo. SK 4200 = assay: MIC in vitro; type: cell-based, Kleb. pneumoniae; details: Table 1, Kleb. pneumo. SK 4200; for MIC: Klebsiella pneumoniae, read-out: MIC in vitro
Method: as §1

Entero. cloacae HH 31254 = assay: MIC in vitro; type: cell-based; details: Enterobacter cloacae
Psuedo. sp. HH 63 = assay: MIC in vitro; type: cell-based, Pseudo. aeruginosa; details: Pseudomonas aeruginosa; Table 1; Psuedo. sp. HH 63; read-out: MIC in vitro
Method: as §1

E. coli HH 33779 = assay: MIC in vitro; type: cell-based; details: E. coli HH 33779; for MIC: Escherichia coli, HH33779, Table 1, read-out: MIC in vitro; for MIC in vitro: Table 1
Method: as §1

shigella HH 117 = assay: MIC in vitro; type: cell-based
Method: as §1

Salmonella ATCC 12176 = assay: MIC in vitro; type: cell-based; details: for MIC: Salmonella; for MIC in vitro: Table 1
Method: as §1

S. aureus HH 127 = assay: MIC in vitro; type: cell-based; details: Staphylococcus aureus, S. aureus HH 127
Method: as §1

Strep. Faecalis HH 34358 = assay: MIC in vitro; type: cell-based; details: Table 1, Strep. Faecalis HH 34358; for MIC: Enterococcus faecalis, read-out: MIC in vitro
Method: as §1

Proteus morgani 179 = assay: MIC in vitro; type: cell-based; details: for MIC: Table 1, read-out: MIC in vitro
Method: as §1

E. coli SK 12140 = assay: MIC in vitro; type: cell-based; details: Escherichia coli, E. coli SK 12140
Method: as §1

Kleb. pneumo. SK 1200 = assay: MIC in vitro; type: cell-based, Kleb. pneumoniae; details: Klebsiella pneumoniae, read-out: MIC in vitro
Method: as §1

S. aureus SK 23390 = assay: MIC in vitro; type: cell-based; details: S. aureus SK 23390; for MIC: Staphylococcus aureus, SK23390, Table 1, read-out: MIC in vitro
Method: as §1

[1] = tested on: Entero. aerog. ATCC 13048; assay: MIC in vitro; type: cell-based, Enterobacter aerogenes; details: Klebsiella aerogenes, ATCC13048, Table 1; Entero. aerog. ATCC 13048; read-out: MIC in vitro
Method: as §1

[2] = Escherichia coli, 12140, sc, s.c.
[3] = sc, Table 2, Kleb. pneumo. 4200, s.c.
[4] = ATCC13880, Table 1, Serra. marc ATCC 13880, read-out: MIC in vitro
[5] = HH31254, Table 1, read-out: MIC in vitro
[6] = HH31254, read-out: MIC in vitro, Table 1
[7] = HH117, Table 1, shigella HH 117, read-out: MIC in vitro
[8] = ATCC12176, Table 1, read-out: MIC in vitro
[9] = HH127, Table 1, read-out: MIC in vitro
[10] = SK12140, Table 1, read-out: MIC in vitro
[11] = Escherichia coli, 12140, po, p.o.
[12] = po, Table 2, Kleb. pneumo. 4200, p.o.

SMILES | ED50 (E. coli 12140; [2]) [mg/kg] | ED50 (Kleb. pneumo. 4200; [3]) [mg/kg] | MIC (Serra. marc ATCC 13880; [4]) [µg/mL] | MIC in vitro (Serra. marc ATCC 13880; Serra. marc ATCC 13880) [µg/mL] | MIC (Kleb. pneumo. SK 4200) [µg/mL] | MIC (Entero. cloacae HH 31254; [5]) [µg/mL] | MIC (Entero. cloacae HH 31254; [6]) [µg/mL] | MIC (Psuedo. sp. HH 63) [µg/mL] | MIC (E. coli HH 33779) [µg/mL] | MIC in vitro (E. coli HH 33779) [µg/mL] | MIC (shigella HH 117; [7]) [µg/mL] | MIC (Salmonella ATCC 12176; [8]) [µg/mL] | MIC in vitro (Salmonella ATCC 12176) [µg/mL] | MIC (S. aureus HH 127; [9]) [µg/mL] | MIC (Strep. Faecalis HH 34358) [µg/mL] | MIC (Proteus morgani 179) [µg/mL] | MIC (E. coli SK 12140; [10]) [µg/mL] | ED50 (E. coli 12140; [11]) [mg/kg] | MIC (S. aureus SK 23390) [µg/mL] | MIC [1] [µg/mL] | other results
O=C(O)C1=C(CSc2nnnn2CS(=O)(=O)O)CS[C@@H]2C(NC(=O)[C@H](O)c3ccccc3)C(=O)N12 (stereo partly drawn) [I, 7-D-Mandelamido-3-(1-sulfomethyltetrazol-5-ylthiomethyl)-3-cephem-4-carboxylic acid] | 1.56 | 0.28 | 12.5 (≈ 23 µM) | 13 (≈ 24 µM) | 0.8 (≈ 1.47 µM) | 3 (≈ 5.53 µM) | 0.8 (≈ 1.47 µM) | > 200 | 3.1 (≈ 5.71 µM) | 1.6 (≈ 2.95 µM) | 0.4 (≈ 0.737 µM) | 0.8 (≈ 1.47 µM) | 0.4 (≈ 0.737 µM) | 6 (≈ 11.1 µM) | 50 (≈ 92.2 µM) | 3 (≈ 5.53 µM) | 0.8 (≈ 1.47 µM) |  |  |  | MIC (S. aureus HH 127; HH127, read-out: MIC in vitro, Table 1): 3.1 µg/mL (≈ 5.71 µM); MIC in vitro (Strep. Faecalis HH 34358): 100 µg/mL (≈ 184 µM); MIC in vitro (Proteus morgani 179; Table 1): 3.1 µg/mL (≈ 5.71 µM)
O=C(O)C1=C(CSc2nnnn2CCS(=O)(=O)O)CS[C@@H]2C(NC(=O)[C@H](O)c3ccccc3)C(=O)N12 (stereo partly drawn) [II, 7-D-Mandelamido-3-[1-(2-sulfoethyl)tetrazol-5-ylthiomethyl]-3-cephem-4-carboxylic acid] | 0.58 | 0.39 | 25 (≈ 44.9 µM) |  | 0.8 (≈ 1.44 µM) | 3.1 (≈ 5.57 µM) |  | > 200 | 1.6 (≈ 2.87 µM) |  | 0.4 (≈ 0.719 µM) | 0.8 (≈ 1.44 µM) |  | 1.6 (≈ 2.87 µM) | 50 (≈ 89.8 µM) | 6.3 (≈ 11.3 µM) | 0.8 (≈ 1.44 µM) | 35 | 0.8 (≈ 1.44 µM) | 6.3 (≈ 11.3 µM) | ED50 (Kleb. pneumo. 4200; [12]): 18.6 mg/kg; MIC (Kleb. pneumo. SK 1200): 0.4 µg/mL (≈ 0.719 µM)
NS(=O)(=O)CCn1nnnc1SCC1=C(C(=O)O)N2C(=O)C(NC(=O)[C@H](O)c3ccccc3)[C@H]2SC1 (stereo partly drawn) [III, 7-D-mandelamido-3-[1-(2-sulfamoylethyl)tetrazol-5-ylthiomethyl]-3-cephem-4-carboxylic acid] | 0.7 | 0.68 |  |  | 1.6 (≈ 2.88 µM) |  | 0.8 (≈ 1.44 µM) | > 200 | 1.6 (≈ 2.88 µM) |  | 0.2 (≈ 0.36 µM) | 0.4 (≈ 0.72 µM) |  | 1.6 (≈ 2.88 µM) | 12.5 (≈ 22.5 µM) | 3.1 (≈ 5.58 µM) | 0.8 (≈ 1.44 µM) | 25 | 0.2 (≈ 0.36 µM) | 3.1 (≈ 5.58 µM) | ED50 (Kleb. pneumo. 4200; [12]): 21.5 mg/kg; MIC (Serra. marc ATCC 13880; ATCC13880, read-out: MIC in vitro): 6.3 µg/mL (≈ 11.3 µM); MIC (Kleb. pneumo. SK 1200; Table 1, Kleb. pneumo. SK 1200): 0.8 µg/mL (≈ 1.44 µM)
O=C(Cc1cccs1)NC1C(=O)N2C(C(=O)O)=C(CSc3nnnn3CS(=O)(=O)O)CS[C@H]12 (some centres unmarked) [V, 7-(2-thienylacetamido)-3-(1-sulfomethyltetrazol-5-ylthiomethyl)-3-cephem-4-carboxylic acid] | 4 | 0.26 | 100 (≈ 188 µM) | 200 (≈ 376 µM) | 1.6 (≈ 3 µM) | 1.6 (≈ 3 µM) |  | > 200 | 6.3 (≈ 11.8 µM) |  | 1.6 (≈ 3 µM) | 0.8 (≈ 1.5 µM) |  | 0.8 (≈ 1.5 µM) | 25 (≈ 46.9 µM) | > 200 | 1.6 (≈ 3 µM) | > 50 | 0.4 (≈ 0.751 µM) | 12.5 (≈ 23.5 µM) | MIC in vitro (Kleb. pneumo. SK 4200): 0.8 µg/mL (≈ 1.5 µM); MIC (Kleb. pneumo. SK 1200): 0.4 µg/mL (≈ 0.751 µM); MIC in vitro (Strep. Faecalis HH 34358): 50 µg/mL (≈ 93.9 µM)
O=C(CSC(F)(F)F)NC1C(=O)N2C(C(=O)O)=C(CSc3nnnn3CS(=O)(=O)O)CSC12 (centres unmarked) [VII, 7-Trifluoromethylthioacetamido-3-(1-sulfomethyltetrazol-5-ylthiomethyl)-3-cephem-4-carboxylic acid] | 0.86 | 0.24 | 200 (≈ 363 µM) | 100 (≈ 182 µM) | 0.4 (≈ 0.727 µM) | 3.1 (≈ 5.63 µM) | 0.8 (≈ 1.45 µM) | > 200 | 3.1 (≈ 5.63 µM) | 1.6 (≈ 2.91 µM) |  |  | 0.2 (≈ 0.363 µM) | 0.8 (≈ 1.45 µM) | 50 (≈ 90.8 µM) | 100 (≈ 182 µM) | 0.8 (≈ 1.45 µM) |  | 0.8 (≈ 1.45 µM) |  | MIC in vitro (Kleb. pneumo. SK 4200): 0.2 µg/mL (≈ 0.363 µM); MIC (Kleb. pneumo. SK 1200; Table 1, Kleb. pneumo. SK 1200): 0.2 µg/mL (≈ 0.363 µM); MIC in vitro (S. aureus SK 23390; Table 1): 0.4 µg/mL (≈ 0.727 µM); MIC (shigella HH 117; Shigella, HH117, read-out: MIC in vitro): 0.8 µg/mL (≈ 1.45 µM); MIC (Salmonella ATCC 12176; ATCC12176, read-out: MIC in vitro, Table 1): 0.4 µg/mL (≈ 0.727 µM); MIC (E. coli SK 12140; SK12140, read-out: MIC in vitro, Table 1): 0.4 µg/mL (≈ 0.727 µM)
